According to PubChem BioAssay AID1919004 (Molecular Pharmacology Branch, DTP, NCI, 2023):
Where “and” joins values, the source holds several entries; their conditions need not be identical. Identical values can stand only once.

Tested on: 883617-216-R-J1-PDC complex spheroids, growth, % test/control
Assay: Anticancer human tumor 883617-216-R-J1-PDC patient-derived bladder carcinoma cell line growth inhibition [AhR]
Settings: for viability, T/C: stronger effect = lower value; active = viability on the fitted dose curve at most 10% of control; inactive = the rest
Method in brief: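 Complex tumor spheroids co-cultured with HUVEC and human MSC stroma; AhR antagonists tested in combination with standard-of-care and investigational agents. Top concentration at or near clinical Cmax (else 10 microM), half-log dilutions; growth expressed as percent test/control.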
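Note: exposure lasted 7 days after dosing on day 3 of spheroid growth.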

CC(C)CC(NC(=O)C(Cc1ccccc1)NC(=O)c1cnccn1)B(O)O (configuration not stated) + Cc1cncc(-c2nc(NCCc3c[nH]c4ccccc34)c3ncn(C(C)C)c3n2)c1
active: viability, T/C (second compound 0.1 µM, first compound 0.03 µM) 0.14% | viability, T/C (second compound 0.1 µM, first compound 0.0949 µM) 0.1% | viability, T/C (second compound 0.1 µM, first compound 0.3 µM) 0.23% | viability, T/C (second compound 0.316 µM, first compound 0.03 µM) 0.11% | viability, T/C (second compound 0.316 µM, first compound 0.0949 µM) 0.06% | viability, T/C (second compound 0.316 µM, first compound 0.3 µM) 0.21% | viability, T/C (second compound 1 µM, first compound 0.03 µM) 0.1% | viability, T/C (second compound 1 µM, first compound 0.0949 µM) 0.05% | viability, T/C (second compound 1 µM, first compound 0.3 µM) 0.21% | viability, T/C (second compound 3.16 µM, first compound 0.03 µM) 0.14% | viability, T/C (second compound 3.16 µM, first compound 0.0949 µM) 0.84% | viability, T/C (second compound 3.16 µM, first compound 0.3 µM) 0.2% | viability, T/C (second compound 10 µM, first compound 0.00949 µM) 0.3% | viability, T/C (second compound 10 µM, first compound 0.03 µM) 0.24% | viability, T/C (second compound 10 µM, first compound 0.0949 µM) 0.23% | viability, T/C (second compound 10 µM, first compound 0.3 µM) 0.62%
inactive: viability, T/C (second compound 0.1 µM, first compound 0.000949 µM) 90.2% | viability, T/C (second compound 0.1 µM, first compound 0.003 µM) 93.5% | viability, T/C (second compound 0.1 µM, first compound 0.00949 µM) 48.1% | viability, T/C (second compound 0.316 µM, first compound 0.000949 µM) 97.4% | viability, T/C (second compound 0.316 µM, first compound 0.003 µM) 96.1% | viability, T/C (second compound 0.316 µM, first compound 0.00949 µM) 44.8% | viability, T/C (second compound 1 µM, first compound 0.000949 µM) 111% | viability, T/C (second compound 1 µM, first compound 0.003 µM) 93.9% | viability, T/C (second compound 1 µM, first compound 0.00949 µM) 38.7% | viability, T/C (second compound 3.16 µM, first compound 0.000949 µM) 105% | viability, T/C (second compound 3.16 µM, first compound 0.003 µM) 111% | viability, T/C (second compound 3.16 µM, first compound 0.00949 µM) 23.6% | viability, T/C (second compound 10 µM, first compound 0.000949 µM) 61.7% | viability, T/C (second compound 10 µM, first compound 0.003 µM) 57.3%
8.45 nM: IC50 (curve of first compound, second compound 0.316 µM)
6.62 nM: IC50 (curve of first compound, second compound 3.16 µM)
3.48 nM: IC50 (curve of first compound, second compound 10 µM)
7.37 nM: IC50 (curve of first compound, second compound 1 µM)
9.01 nM: IC50 (curve of first compound, second compound 0.1 µM)

CC(C)c1c(-c2ccccc2)nc2c(C#N)c[nH]n2c1=O
inactive: viability, T/C (compound 0.0316 µM) 101% and 93.4% and 95% | viability, T/C (compound 0.1 µM) 107% and 97.3% and 110% | viability, T/C (compound 0.316 µM) 109% and 96% and 82.6% | viability, T/C (compound 1 µM) 98.6% and 98% and 68.8% | viability, T/C (compound 3.16 µM) 110% and 100% and 82.2% | viability, T/C (compound 10 µM) 105% and 102% and 77.7%
> 10000 nM: IC50 (curve of compound)
